Laboratory results from patent US20040052734A1, “Process for providing a stable crystalline form of salbutamol” (Boehringer Ingelheim Pharma GmbH & Co. KG, priority 2002, published 2004).
Several values for one entry are separate records, joined by “and”; a condition that tells them apart may be missing. Equal values may be shown once.

Experiments:
Type in all cases: physicochemical
[1] = Particle size analysis by powder laser diffraction (HELIOS, RODOS dry powder feeder)
Procedure: Micronised powders were prepared with a MC Jetmill 50 (Jetpharma, Balerna, Switzerland). The micronised powder underwent different conditioning settings in a climate chamber ([…] GmbH, […], Germany). The temperature was set at 25° C. and 40° C. and the relative humidity was varied in a field between 45% and 75%, respectively. For “dry” conditioning settings the powders were prepared at a temperature of 70° C. in a thermal oven (Heraeus, Hanau, Germany). […] Samples were introduced through the RODOS dry powder feeder. The supply pressure of the injector was at 3 bar.

[2] = Recording of humidity (sorption behaviour of micronised, wrapped powder); conditions: unconditioned, stored at 55% RH
Procedure: Using a humidity sensor (Ebro, Ingolstadt, Germany) the sorption behaviour of the micronised and wrapped powder was measured. With the help of a humidity sensor it is possible to observe the sorption behaviour of the micronised, in a PE-bag wrapped, powder. Approx. 30 g of the freshly grinded substance are wrapped in a PE-bag together with a humidity sensor and afterwards closed.

[3] = Powder X-ray diffraction at different temperatures under vacuum; conditions: amorphous (produced by freeze-drying)
Procedure: The Powder X-Ray Diffraction (Bruker, Rheinstetten, Germany) patterns were acquired at different temperatures using Cu-K α radiation (λ=1.5406 Å). The data were collected over an angular range of 2-40°2θ using a step size of 0,014°2θ and a step time of 2 sec.

[4] = Isothermal microcalorimetry (amorphous content / recrystallisation); conditions: for amorphous amount: micronised, stored in opened TWO-Glass at room temperature (21.5° C., 42% RH)
Procedure: The micronised powder underwent different conditioning settings in a climate chamber (Weiβ Klimatechnik GmbH, Reiskirchen-Lindstruth, Germany). The temperature was set at 25° C. and 40° C. and the relative humidity was varied in a field between 45% and 75%, respectively.
For “dry” conditioning settings the powders were prepared at a temperature of 70° C. in a thermal oven (Heraeus, Hanau, Germany).
The powder was investigated using a Thermal Activity Monitor (Type 2277, Thermometric, Sweden) at 25° C. The samples were weighted into a glass ampoule and a tube was added containing a saturated salt solution. The ampoule was sealed and equilibrated in the calorimeter for 5 min before lowering it into the measuring site.

[5] = Table 1 batch, micronised powder, before conditioning
[6] = Table 2 batch, micronised powder, before conditioning
[7] = micronised powder conditioned 5 hours by 70° C. (dry)

effect of additional conditioning duration on particle size ([1]; 40° C. and 75% RH beyond five hours, storage under same conditions for two weeks): no effect on the particle size
Particle size 10% < [1, 5]: 0.83 μm
Particle size 50% < [1, 5]: 1.94 μm
Particle size 90% < [1, 5]: 4.53 μm
Particle size 10% < [1, 6]: 0.70 μm
Particle size 50% < [1, 6]: 1.30 μm and 1.53 μm
Particle size 90% < [1, 6]: 3.42 μm
Particle size 10% < ([1]; conditioned 24 h 55% RH 25° C.): 0.78 μm
Particle size 50% < ([1]; conditioned 24 h 55% RH 25° C.): 1.66 μm
Particle size 90% < ([1]; conditioned 24 h 55% RH 25° C.): 3.56 μm
Particle size 10% < ([1]; conditioned 24 h 55% RH 40° C.): 0.79 μm
Particle size 50% < ([1]; conditioned 24 h 55% RH 40° C.): 1.68 μm
Particle size 90% < ([1]; conditioned 24 h 55% RH 40° C.): 3.59 μm
Particle size 10% < ([1]; conditioned 24 h 65% RH 25° C.): 0.82 μm
Particle size 50% < ([1]; conditioned 24 h 65% RH 25° C.): 1.76 μm
Particle size 90% < ([1]; conditioned 24 h 65% RH 25° C.): 3.67 μm
Particle size 10% < ([1]; conditioned 24 h 65% RH 40° C.): 0.80 μm
Particle size 50% < ([1]; conditioned 24 h 65% RH 40° C.): 1.72 μm
Particle size 90% < ([1]; conditioned 24 h 65% RH 40° C.): 3.64 μm
Particle size 10% < ([1]; conditioned 24 h 75% RH 25° C.): 0.83 μm
Particle size 50% < ([1]; conditioned 24 h 75% RH 25° C.): 1.77 μm
Particle size 90% < ([1]; conditioned 24 h 75% RH 25° C.): 3.69 μm
Particle size 10% < ([1]; conditioned 24 h 75% RH 40° C.): 0.84 μm
Particle size 50% < ([1]; conditioned 24 h 75% RH 40° C.): 1.78 μm
Particle size 90% < ([1]; conditioned 24 h 75% RH 40° C.): 3.69 μm
uncontrolled particle growth in terms of particle diameters ([1]; dry conditioning, then four weeks of storage): up to 16%
Particle size 10% < [1, 7]: 0.82 μm
Particle size 50% < [1, 7]: 1.90 μm
Particle size 90% < [1, 7]: 4.45 μm
particle size on storage without conditioning ([1]; wrapped, stored 21-23° C., approx. 45% RH, up to three months): shows likewise particle growth
recrystallisation after dry conditioning ([4]; 70° C. for 5 hours): does not lead to recrystallisation
reduction of the amorphous fraction ([4]; conditioning at 25° C. and 45% RH for 24 hours): 2.5%
crystallinity after conditioning ([4]; five hours of conditioning at 40° C. and 75% RH, partially amorphous powder): complete crystalline material
amorphous content ([4]; initial sample (micronised, before conditioning)): 7.7%
amorphous amount ([4]; after 1st week): 6.5%
amorphous amount ([4]; after 2nd week): 5.4%
amorphous amount ([4]; after 4th week): 4.5%
amorphous content ([4]; unconditioned powder, wrapped, stored four weeks at 21-23° C., approx. 45% RH): < 0.5%
Structure (SMILES): CC(C)(C)NC[C@H](O)c1ccc(O)c(CO)c1 (racemic) [salbutamol sulphate]
recrystallisation on storage [2]: completely recrystallized within one week
recrystallisation of amorphous material [3]: does not recrystallize under exclusion of humidity
